# Conditions: buffer; pH 7.4; 200.0 µM
row,solubility kinetic [µg/mL],Structure (SMILES)
1,< 0.4,CN1C(=O)/C(=C/c2cc3c(cc2Br)OCO3)NC1=S
2,5.1,CCN1CCN(c2ccc(NC(=O)COc3ccc(Cl)cc3C)cc2)CC1
3,> 45.3,COc1ccccc1CCNC(=O)C1(C)CC1(Cl)Cl (stereo unspecified)
4,2.6,O=C(Cc1ccccc1)c1c[nH]c(C(=O)NC2CCCC2)c1
5,38.5,CS(=O)(=O)c1ccc(C(=O)NCc2ccc(F)cc2)cc1
6,> 44.5,Cc1nnc(SCC(=O)NC2CC2)n1CC1CCCO1 (stereo unspecified)
7,> 40.5,Cc1ccc(-c2c(C)n([O-])c3c([n+]2=O)CCCC3)cc1
8,> 33.3,C=C(C)CN1C(=O)C(=O)N(CC(=C)C)C1=O
9,> 49.7,Cc1ccc(S(=O)(=O)N2CCN(Cc3cccnc3)CC2)cc1
10,> 42.2,O=C(CCS(=O)(=O)c1ccccc1)NC1CCCC1
11,40.1,COc1ccc(C)cc1Nc1nc(N)c2cc(OC)c(OC)cc2n1
12,1.4,CCOC(=O)c1ccc(-n2c(CC)nc3ccccc3c2=O)cc1
13,> 35,CN(C)/N=C/c1ccc(N2CCOCC2)cc1
14,7.2,CC1=CC(C)(C)NC(=S)N1C(C)c1ccccc1 (stereo unspecified)
15,2,Cc1nc2ccccc2nc1OCc1cccc([N+](=O)[O-])c1
16,29.7,COc1c(C=O)cc2c3c1CCCN3CCC2
17,30.6,Cc1cccc(CN2CCN(c3ncccn3)CC2)c1
18,> 43.6,COc1ccc(/C=C/C(=O)N2CCN(C)CC2)cc1OC
19,0.5,O=c1oc(Nc2cccc(Cl)c2)nc2ccccc12
20,12,COc1ccccc1CNC(=S)Nc1ccc(F)cc1
21,17.4,Fc1cccc2sc(N3CCCC3)nc12
22,> 47.1,O=C(NCCN1CCOCC1)c1cc([N+](=O)[O-])ccc1Cl

row,solubility kinetic [µg/mL],Structure (SMILES)
1,5.7,O=C(c1cc(-c2ccc3c(c2)OCO3)on1)N1CCCCC1
2,37.8,Cc1occc1C(=O)NCc1nc(-c2ccc(Cl)cc2)no1
3,24.1,O=C(Nc1ccccc1O)c1ccc([N+](=O)[O-])cc1
4,41.1,Cc1ccsc1C(=O)OCC(=O)NCc1ccco1
5,< 0.6,CC(=O)c1ccc(NCCC(=O)c2ccccc2)cc1
6,> 41.9,O=C(OCC(=O)N1CCCC1=O)c1ccc(O)cc1O
7,19.4,COc1cscc1C(N)=O
8,46.2,Cc1nc2c(c(=O)c3ccccc3n2C)c(=O)n1-c1ccccc1
9,1,O=C(c1c(F)cccc1F)N(C1CCCCC1)C1CCCCC1
10,46.8,CC1(C(=O)N2CCN(c3ccccc3)CC2)CC1(Cl)Cl (stereo unspecified)
11,39.9,Cc1ccc(C)c(NC(=O)CSc2nc(C)cs2)c1
12,0.5,CCCC(=O)NC(=S)Nc1cc(-c2nc3ncccc3o2)ccc1C
13,> 42,O=C(/C=C/NCc1cccnc1)C(F)(F)C(F)(F)F
14,> 47.1,O=C(CNC(=O)c1cccnc1)N/N=C/c1ccc(O)cc1O
15,42.6,O=C(c1cccc(Cl)c1)N1CCC(c2nc3ccccc3[nH]2)CC1
16,> 58.1,COc1ccc(CC(=O)OCC(=O)NCc2ccc3c(c2)OCO3)cc1OC
17,3.1,COc1ccccc1CNC(=O)CN1C(=O)NC(c2ccccc2)(c2ccccc2)C1=O
18,11.7,Cc1ccc(NC(=O)CNC(=O)c2cccc(Cl)c2)nc1
19,> 48.5,C=CCN(CC(=O)O)S(=O)(=O)c1ccccc1C(F)(F)F
20,46.9,CC1CC(C)CN(CC(O)COCc2ccccc2)C1.Cl (stereo unspecified)
21,2.1,O=C(Nc1nc2ccccc2[nH]1)c1cc2ccccc2o1

# The next lines start with the molecule.
row,Structure (SMILES),solubility kinetic [µg/mL]
1,CC1CN(C(=O)/C(=C/c2ccco2)NC(=O)c2ccccc2)CC(C)O1 (stereo unspecified),> 53.2
2,O=C(NC1CC1)c1cc(OCC(F)(F)F)ccc1OCC(F)(F)F,44.3
3,COc1ccc2cc(C(C)C(=O)NC3CCC(O)CC3)ccc2c1 (stereo unspecified),25.3
4,Cc1csc(SCC(=O)N(C)C2CCS(=O)(=O)C2)n1 (stereo unspecified),> 48.1
5,c1ccc(-c2cc(NCCN3CCCCC3)c3ccccc3n2)cc1,> 49.7
6,O=C(CN1C(=O)c2ccccc2C1=O)NC1CCCCC1,33.4
7,COCCN(C(=O)c1ccccc1OC)c1nnc(C)s1,> 46.1
8,O=Cc1c(SCCO)nc2ccccn2c1=O,17.6
9,CC(=O)c1c(C)[nH]c(C(=O)Nc2cc(F)ccc2C)c1C,4.5
10,NC(=O)c1cc(S(=O)(=O)N2CCc3ccccc3C2)cs1,2
11,O=C(CSc1nc2cc(Cl)ccc2o1)NC1CC1,> 42.4
12,CN(C)c1ccc(C2CC(=O)C=C(Nc3ccccc3N)C2)cc1 (stereo unspecified),48.2
13,CC1CN(S(=O)(=O)c2cccc(C(F)(F)F)c2)CC(C)O1 (stereo unspecified),43.6
14,O=C(NC1CCCc2ccccc21)c1cc(F)cc(F)c1 (stereo unspecified),2.6
15,Cc1ccc(CCNC(=O)CNC(=O)c2cccs2)cc1,40.3
16,COc1ccc(CCNC(=O)CCc2ccsc2)cc1OC,> 47.9
17,CCC(C)NS(=O)(=O)c1cc2c3c(c1)CCC(=O)N3CCC2 (stereo unspecified),> 48.4
18,COc1ccc(S(=O)(=O)N2CCCC2)cc1C(=O)O,> 42.8
19,Cc1cccc(Nc2nc(N3CCOCC3)nc(N3CCOCC3)n2)c1,34.9
20,Cn1cc(Br)c(C(=O)N2CCCCCC2)n1,> 42.9
21,O=C(CCn1cnc2ccccc2c1=O)Nc1cccc(Cl)c1Cl,3.8
22,Cc1ccc(OCC(=O)NCC2CCCO2)c(C)c1 (stereo unspecified),> 39.5
23,CCOc1cc(C)c(S(=O)(=O)N2CCCCC2)cc1C,14.5
24,COc1ccccc1CSc1nc2c(c(=O)n(C)c(=O)n2C)n1C,9.8
25,O=C(Nc1ccc(Cl)cn1)C1CC1,> 29.5
26,Cc1cc(C(C)(C)C)cc(C)c1S(=O)(=O)N1CC(=O)Nc2ccccc21,5.7

row,Structure (SMILES),solubility kinetic [µg/mL]
1,CS(=O)(=O)N(CC(=O)N1CCCC1)Cc1ccccc1,> 44.5
2,Cn1c(=O)c2c(ncn2CC(=O)Nc2cc(S(=O)(=O)N3CCCCC3)ccc2O)n(C)c1=O,> 71.5
3,CCN(CC)C(=O)CSc1ncccc1-c1nc2ccccc2[nH]1,17.6
4,CN1CCC(CO)(Cc2ccccc2)CC1,28.6
5,CCN(CC)S(=O)(=O)c1cccc(C(=O)N[C@H](C(=O)NC2=NCCS2)C(C)C)c1,64.5
6,CN(Cc1ccc2c(c1)OCCO2)C(=O)CSc1ncnc2sccc12,41.8
7,Cc1cc(C(=O)Nc2ccc3c(c2)CCC3)ccc1[N+](=O)[O-],< 0.3
8,Nc1cc(=O)[nH]c(SCC(=O)Nc2cc(Cl)ccc2Cl)n1,3.5
9,COc1ccc(-c2cc(C(=O)NC3CCCC3)no2)cc1,0.4
10,COc1ccc2[nH]cc(CCNC(=O)C3CCCCC3)c2c1,42.7
11,Nc1cc(=O)[nH]c(SCCSc2ccc(F)cc2)n1,6.2
12,Cc1cccc(C)c1NC(=O)CNC(=O)c1cccnc1,> 42.5
13,Cc1cc(C)c2c(n1)sc1c(=O)n(Cc3ccc(F)cc3)cnc12,< 0.2
14,O=C(c1ccc(N2C(=O)c3ccccc3C2=O)cc1)N1CCCCC1,> 50.2
15,Cc1cc(=O)oc(C)c1C(=O)Nc1ccccc1F,35.4
16,O=C(CCCOc1ccccc1)NNC(=O)c1ccncc1,> 44.9
17,Cc1ccc(C)n1CCN1CCN(C(=O)CC#N)CC1,> 41.2
18,COc1ccccc1NC(=O)COC(=O)c1ccc2ccccc2n1,13.1
19,CC(=O)N1CCN(CC(C)(C)NS(=O)(=O)c2ccc(C)cc2)CC1,46.6
20,COc1ccc(OCCn2ccnc2)cc1,26.4
21,Cc1[nH]c2ccccc2c1C(c1ccncc1)N1CCCCC1 (stereo unspecified),> 45.8
22,CCn1c(SCC(=O)NC2CCCC2)nnc1-c1cccnc1,> 49.7
23,O=C(NCCc1ccc(Cl)cc1)C1COc2ccccc2O1 (stereo unspecified),5.5
24,CCCC(=O)Nc1ccc(C(=O)COC(=O)C2CC2)cc1,15.3
25,CN(C)C(=S)c1ccc(N(C)C)cc1,28.2
26,CCOc1ccc(CC(=O)N2CCN=C2SC)cc1,> 41.8

row,Structure (SMILES),solubility kinetic [µg/mL]
1,CN(Cc1ccccc1)S(=O)(=O)c1cc2c3c(c1)CCN3C(=O)CC2,3.6
2,CC1=CCC(C(=O)O)C(C(=O)Nc2ccc(-c3nc4ccc(C)cc4s3)cc2)C1 (stereo unspecified),> 61
3,COc1ccc(CN(C)C(=O)c2sccc2-c2ccccc2)c(OC)c1,12
4,Cc1ccc(CNS(=O)(=O)c2cccc3nsnc23)cc1,> 47.9
5,CCc1noc(C)c1C(=O)Nc1ccccc1C(C)(C)C,39
6,O=C(CNC(=O)c1ccc2c(c1)OCO2)NCc1cccs1,34.8
7,CCOC(=O)Cc1ccc(NC(=O)c2cccc([N+](=O)[O-])c2)cc1,2.6
8,Cl.Clc1cccc(CN2C3=NCCCN3c3ccccc32)c1,> 50.1
9,COC(=O)CSc1nnc(CCc2ccccc2)n1C,> 43.7
10,O=C(Nc1ccc(F)cc1)NC1CCCc2ccccc21 (stereo unspecified),0.7
11,CC(=O)OC(C(=O)Nc1nccs1)c1ccccc1 (stereo unspecified),> 41.4
12,CCC(OCC(O)CN1CCCCC1)c1ccccc1.Cl (stereo unspecified),> 47.1
13,CCN1CCN(c2nc3c(C)cccn3c(=O)c2C=C(C#N)C#N)CC1,51.1
14,Cc1cc(Cl)cc(C)c1OCC(=O)NC1CCCCCC1,1.9
15,CC(=O)CCc1oc2c([N+](=O)[O-])cccc2c1-c1ccc(C)o1,2.8
16,N/C(=N\OC(=O)c1cccc(Br)c1)c1ccc([N+](=O)[O-])cc1,1.4
17,Cc1cccc(OCc2cc(-c3ccccc3)no2)c1C,< 0.6
18,CN1C(=O)/C(=C\c2ccccc2OCc2ccccc2)SC1=S,< 0.7
19,CCOc1ccc(NC(=S)Nc2cccc3ccccc23)cc1,2
20,NC(N)=NS(=O)(=O)c1ccc(NC(=S)NC(=O)c2ccccc2)cc1,3.9
21,Cc1ccc(S(=O)(=O)N2CCN(C(=O)COC(=O)/C=C/c3ccc([N+](=O)[O-])cc3)CC2)c(C)c1,1.9
22,CC(=O)Nc1ccc(NC(=O)C(C)OC(=O)C2CCC2)cc1 (stereo unspecified),> 45.7
23,Cc1ccc(C(=O)NCCC(=O)Nc2ccccc2C)cc1,> 44.5
24,CCCN(c1ccc(C)cc1)c1nc(=O)c2cccnc2s1,3
25,CC(C)c1ccc(NC(=S)N2CCN(C)CC2)cc1,> 41.6
26,COc1ccc(C(=O)O)cc1S(=O)(=O)NC(C)C,> 41
